Source: patent US20170313974A1, “Modulation of Tissue Fatty Acid Composition of a Host by Human Gut Bacteria” (University College Cork, National University of Ireland, priority 2007, published 2017)

What was measured:
Assay type in all cases: in vivo
[1] = test system: Myeloperoxidase (MPO) activity in colonic homogenates; assay: Colonic mucosal myeloperoxidase (MPO) activity in SCID mice with colitis; conditions: 10 weeks, mean ± SD, n = 8
Experimental: (§1) Materials and Methods Severe Combined Immuno Deficient (SCID) mice were used in this study, which had been induced with colitis through adoptive transfer of splenic CD4^+ CD45RB^high T cells from BALB/c mice. […] Ten weeks after colitis induction, cytokine production by splenocytes was measured in vitro by ELISA, myeloperoxidase (MPO) activity was determined in colonic homogenates and fatty acid composition in liver, adipose tissue, cecum and colon was determined by gas liquid chromatography (GLC). Similar studies have also been conducted in pigs (data not shown here) and similar results obtained.
(§2) SCID mice were purchased from Harlan ltd. (Briester, Oxon, UK) at 6 weeks of age and fed a normal diet for 1 week to stabilize all metabolic conditions. Each cage contained one mouse. Mice were exposed to a 12-h light:dark cycle and maintained at a constant temperature of 25° C. One week after arrival, mice were divided into five groups for different dietary treatments (Table I).
SCID mice were induced with colitis through adoptive transfer of the CD4^+ CD45RB^high subpopulation of CD4+ T cells from normal BALB/c mice (Mackay et al. 1998). […]
Myeloperoxidase activity was measured according to the method by Krawisz et al. (24). […] The absorbance (OD) was measured spectrophotometrically at 450 nm at 1 min intervals for 15 min. […] Results are expressed as U/mg protein.

splenocytes = assay: Cytokine production by stimulated splenocytes of fed SCID mice with colitis; conditions: compared to control
Experimental: as §1
Cytokine production in response to defined stimuli, in vitro, was measured using enzyme-linked immunosorbent assay (ELISA). Splenocyte isolation was performed using an erythrocyte lysing kit (R&D Systems). The spleens of all mice were removed at the time of sacrifice, blotted on filter paper and weighed. Each spleen was immediately placed in Hanks' buffer containing 10% fetal calf serum. The spleen was teased apart and sieved through a cell strainer into a 50 ml centrifuge tube. Cells were centrifuged for 10 minutes at 200 g. The cells were resuspended in 2 ml M-lyse buffer, which lyses red blood cells, and incubated for 8 minutes at room temperature. Lysis was deactivated using wash buffer and the cell suspension was centrifuged for 10 minutes at 200 g. Cells were resuspended in DMEM (10% fetal calf serum, 1% Pen/Strep, Sigma) and diluted to 1×10^6 cells/ml for in vitro culturing. The isolated lymphocytes were cocultured with the proinflammatory bacterium Salmonella typhimurium UK1 (1×10^6 cells/ml) and with antiCD3-antiCD28 monoclonal antibodies for 48 hours at 37° C. Cell supernatants were isolated and stored at −80° C. Cytokine analysis was performed on the supernatants using a BD™ Cytometric Bead Array (CBA) Mouse Inflammation Kit (BD Biosciences, US).

SCID mice = assay: Tissue fatty acid composition, SCID mouse colitis feeding study (10 weeks)
Experimental: as §1, §2
For linoleic acid and c9t11 CLA treatment, a powdered diet blended with the drug was administered for 10 weeks to yield a dose of drug at approximately 90 mg/day/mouse (this is based on preliminary experiments by Bassaganya-Riera et al. (22) that established an optimal dose of fatty acids of 1 g/100 g of diet).
After the adoptive transfer, mice were weighed three times a week and examined for clinical signs of disease associated with colitis (ie. rectal bleeding, diarrhoea and rectal prolapse). After 10 weeks on experimental diets, the mice were sacrificed by cervical dislocation. Livers, adipose tissue, spleens, colons and cecums were removed from the carcasses, blotted dry on filter paper, weighed and frozen in liquid nitrogen. All samples were stored at −80° C. until processed. The colon was divided into different sections for MPO activity and fatty acid composition.
(§3) Lipids were extracted with Chloroform:Methanol 2:1 v/v according to Folch et al. (25). Briefly, tissue or faecal samples, ˜1 g liver, 300 mg small intestine, 200 mg adipose tissue, 250 mg colon, 800 mg cecum or 100 mg feaces were homogenised in over a 25 fold excess of CHCl3:CH3OH (2:1 v/v) and washed with 0.88% KCl solution. Excess solvent was dried down under a gentle stream of N2 at 40° C. and lipids were stored at −20° C. in 1 ml chloroform. Fatty acid methyl esters (FAME) were prepared using first 10 ml 0.5N NaOH in methanol for 10 min at 90° C. followed by 10 ml 14% BF3 in methanol for 10 min at 90° C. (26). FAME was recovered with hexane. Prior to GC analysis samples were dried over 0.5 g of anhydrous sodium sulphate for an hour and stored at −20° C. FAME were separated by gas liquid chromatography (GLC Varian 3400, Varian, Walnut Creek, Calif. USA fitted with a flame ionization detector) using a Chrompack CP Sil 88 column (Chrompack, Middleton, The Netherlands, 100 m×0.25 mm i.d., 0.20 μm film thickness) and He as a carrier gas. The column oven was programmed to be held initially at 80° C. for 8 minutes then increased 8.5° C./min to a final column temperature of 200° C. The injection volume used was 0.6 μl with automatic sample injection with a splitless on SPI on-column temperature programmable injector. Data was recorded and analysed on a Minichrom PC system (VG Data System, Manchester, U.K.). Tri-heptadecanoate (Sigma) was used as an internal standard, and peaks were identified with reference to retention times of fatty acids in a standard mixture. All fatty acid results are shown as mean±SD (n=8) g/100 g FAME.

BALB/c mice = assay: Tissue and faecal fatty acid composition, BALB/c LA feeding trial (8 weeks)
Experimental: Male BALB/c mice were purchased from Harlan Ltd. (Briester, Oxon, UK). One week after arrival, these mice were divided into two groups (n=9) for different dietary treatments. […] Group B received 1% LA in their diet. For LA treatment, a powdered diet blended with the drug was administered for 8 weeks to yield a dose of drug at approximately 90 mg/day/mouse (this is based on preliminary experiments by Bassaganya-Riera et al. (1) that established an optimal dose of fatty acids of 1 g/100 g).
After 8 weeks on experimental diets, the mice were sacrificed by cervical dislocation. Livers, hearts, colons, small intestines and cecums were removed from the carcasses, blotted dry on filter paper, weighed and frozen in liquid nitrogen. All samples were stored at −80° C. until processed.
as §3

## CCCCC/C=C\C/C=C\CCCCCCCC(=O)O [LA, linoleic acid]
[1]
  MPO colon: 1.16 ± 0.23 U/mg protein
splenocytes
  proinflammatory cytokines: no reduction
SCID mice; cecum digesta, mean ± SD, n = 8
  c9, t11 CLA in cecum digesta: 0.08 ± 0.02^ g/100 g FAME
SCID mice; faeces
  c9, t11 CLA in faeces: 0.09 g/100 g FAME
SCID mice; liver, mean ± SD, n = 8
  c9, t11 CLA in liver: 0.01 ± 0.01^2 g/100 g FAME
BALB/c mice; faeces after 8 weeks
  LA in faeces: 27.4±7.16
BALB/c mice; faeces harvested after 8 weeks
  c9, t11 CLA in faeces: 0.35±0.25 g/100 g FAME
BALB/c mice; large intestine, 8 weeks
  c9, t11 CLA in large intestine: 0.07±0.02 g/100 g FAME
BALB/c mice; liver, 8 weeks
  c9, t11 CLA in liver: 0.05±0.03 g/100 g FAME
BALB/c mice; small intestine, 8 weeks
  c9, t11 CLA in small intestine: 0.03±0.01
